Experimental data: US20250059231A1, “Protease inhibitors” (priority 2021, published 2025)

How the values were obtained:
[1] = test system: Dengue virus 2 (DENV2, ATCC VR-1584); assay: DENV2 infection in AG129 mice: clinical signs, body and spleen weights; assay type: in vivo; details: 100 mg/kg, SC; n = 9
Method: (§1) The purpose of this study was to determine the efficacy of the compounds on Dengue virus 2 (DENV2, ATCC® VR-1584™) infection in AG129 mice.
(§2) Six groups of AG129 mice, 6-8 weeks old, with 9 mice per group were used to test compounds according to table 3.1.1. Animal room environment was monitored for temperature and relative humidity twice per day. The temperature range was 22° C.±3° C. and humidity range was 30-70%. The animals were provided with 12 hours light and 12 hours darkness. Feed and drinking water was provided ad libitum. Compounds 43 and 113 were tested.
C6/36 (ATCC(CRL-1660) cell lines were grown in RPMI 1640 medium (Gibco/HiMedia) plus 5% fetal bovine serum at 28° C. Dengue virus type 2 (ATCC®VR-1584™) New Guinea C(NGC, DENV2) was passaged in BHK-21 cell cultures to make sufficient stocks for assay. Virus titer was determined by TCID50 method using BHK-21 cells.
(§3) Twenty-four hours post treatment (Day 0), animals were injected intraperitoneally (IP) with 0.2 ml of virus suspension (˜5×10^7/animal).
The vehicle for tested compounds was 5% DMSO+95% (20%) hydroxypropylcyclodextrin. […] Formulations were prepared daily immediately before dosing.
(§4) Administration of compounds and vehicle to animals started twenty four hours before infection (Day −1). Animals were treated daily (From Day-1 to day 4) as per the experimental design shown below in table 3.1.5. Animals were monitored for general clinical signs, morbidity and mortality. Body weights were measured daily.
Animals were sacrificed on day 5 post infection with Isoflurane followed by an overdose of CO2. Spleens were excised, measured and weighed.
(§5) The Mean±SD Log10PFU/ml, relative Mean±SD spleen weight, Mean±SD biomarker concentrations were estimated in each group. Significant differences between group means and control were analyzed by one-way ANOVA, followed by a Dunnett's multiple comparison test, using GraphPad Prism 5 at 95% confidence levels. A p value of <0.05 was considered as significant.

[2] = test system: Dengue virus 2 (DENV2, ATCC VR-1584); assay: DENV2 infection in AG129 mice: viral load in plasma (plaque assay); assay type: in vivo; details: 100 mg/kg, SC
Method: as §1, §2, §3, §4
Blood was collected on days-1, 0, 1, 2, 3, 4 to 5.
BHK-21 cells were cultured to approximately 80% confluency in 24-well plates (NUNC, NY, USA). Plasma samples were 10-fold serially diluted in RPMI 1640 (GIBCO). BHK-21 monolayers were infected with 100 μl of each virus dilution. After incubation at 37° C. and 5% CO2 atmosphere for one hour with rocking at 15 min intervals, the medium was decanted and 1 ml of 1% (w/v)carboxymethyl cellulose in RPMI supplemented with 2% FCS was added to each well. After four days incubation at 37° C. in 5% CO2, the cells were fixed with 4% paraformaldehyde and stained for 30 min with […] of 1% crystal violet dissolved in 37% formaldehyde. After thorough rinsing with water, plates were dried and the plaques were scored visually.
as §5

NC(=O)c1ncn([C@@H]2O[C@H](CO)[C@@H](O)[C@H]2O)n1 [Ribavirin, ribavirin, reference compound]
Body weights of mice at the end of the study (Mean ± SD) [1]: 20.11 ± 1.05 g
Mean + SD Log10PFU/ml Plasma ([2]; Day 2): 3.34 ± 0.29 Log10PFU/ml
Mean + SD Log10PFU/ml Plasma ([2]; Day 5): 3.50 ± 0.13 Log10PFU/ml
